Results taken from patent publication US20180099931A1 (AbbVie S.à.r.l., priority 2016, published 2018).
Like-named read-outs stand apart in the source and are kept apart here.

Molecular target: T1, F508delCFTR (Homo sapiens, UniProt P13569, DEL508-508)
T1 construct: expressed in transfected cells; host or cells: CFBE41o- human lung-derived epithelial cells (CFBE4lo-F508delCFTR-HRP), doxycycline-inducible
Experiment: Cell Surface Expression-Horse Radish Peroxidase (CSE-HRP) Assay;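 on Maximum % activity (with co-corrector): co-corrector and positive control are both the same reference corrector at 2 µM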;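 on Maximum % activity (without co-corrector): percent of the 2 µM on-plate positive control corrector response above DMSO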
Assay type: cell-based
Details: for Maximum % activity (with co-corrector) / Emax: maximum at any tested concentration, normalized to on-plate positive control; for Emax: read-out: Maximum % activity (without co-corrector)

[1] = CSE-HRP, test compound without co-corrector, read-out: EC50 (without co-corrector)
[2] = CSE-HRP, with co-corrector (2 μM of 3-[(2R,4R)-4-({[1-(2,2-difluoro-1,3-benzodioxol-5-yl)cyclopropyl]carbonyl}amino)-7-methoxy-3,4-dihydro-2H-chromen-2-yl]benzoic acid), read-out: EC50 (with co-corrector)
[3] = CSE-HRP, with co-corrector (2 μM)
[4] = test compound without co-corrector, read-out: EC50 (without co-corrector)
[5] = with co-corrector (2 μM of 3-[(2R,4R)-4-({[1-(2,2-difluoro-1,3-benzodioxol-5-yl)cyclopropyl]carbonyl}amino)-7-methoxy-3,4-dihydro-2H-chromen-2-yl]benzoic acid), read-out: EC50 (with co-corrector)
[6] = test compound without co-corrector
[7] = with co-corrector (2 μM of 3-[(2R,4R)-4-({[1-(2,2-difluoro-1,3-benzodioxol-5-yl)cyclopropyl]carbonyl}amino)-7-methoxy-3,4-dihydro-2H-chromen-2-yl]benzoic acid)

T1 sequence (P13569 with tags, fused parts or gaps DEL508-508): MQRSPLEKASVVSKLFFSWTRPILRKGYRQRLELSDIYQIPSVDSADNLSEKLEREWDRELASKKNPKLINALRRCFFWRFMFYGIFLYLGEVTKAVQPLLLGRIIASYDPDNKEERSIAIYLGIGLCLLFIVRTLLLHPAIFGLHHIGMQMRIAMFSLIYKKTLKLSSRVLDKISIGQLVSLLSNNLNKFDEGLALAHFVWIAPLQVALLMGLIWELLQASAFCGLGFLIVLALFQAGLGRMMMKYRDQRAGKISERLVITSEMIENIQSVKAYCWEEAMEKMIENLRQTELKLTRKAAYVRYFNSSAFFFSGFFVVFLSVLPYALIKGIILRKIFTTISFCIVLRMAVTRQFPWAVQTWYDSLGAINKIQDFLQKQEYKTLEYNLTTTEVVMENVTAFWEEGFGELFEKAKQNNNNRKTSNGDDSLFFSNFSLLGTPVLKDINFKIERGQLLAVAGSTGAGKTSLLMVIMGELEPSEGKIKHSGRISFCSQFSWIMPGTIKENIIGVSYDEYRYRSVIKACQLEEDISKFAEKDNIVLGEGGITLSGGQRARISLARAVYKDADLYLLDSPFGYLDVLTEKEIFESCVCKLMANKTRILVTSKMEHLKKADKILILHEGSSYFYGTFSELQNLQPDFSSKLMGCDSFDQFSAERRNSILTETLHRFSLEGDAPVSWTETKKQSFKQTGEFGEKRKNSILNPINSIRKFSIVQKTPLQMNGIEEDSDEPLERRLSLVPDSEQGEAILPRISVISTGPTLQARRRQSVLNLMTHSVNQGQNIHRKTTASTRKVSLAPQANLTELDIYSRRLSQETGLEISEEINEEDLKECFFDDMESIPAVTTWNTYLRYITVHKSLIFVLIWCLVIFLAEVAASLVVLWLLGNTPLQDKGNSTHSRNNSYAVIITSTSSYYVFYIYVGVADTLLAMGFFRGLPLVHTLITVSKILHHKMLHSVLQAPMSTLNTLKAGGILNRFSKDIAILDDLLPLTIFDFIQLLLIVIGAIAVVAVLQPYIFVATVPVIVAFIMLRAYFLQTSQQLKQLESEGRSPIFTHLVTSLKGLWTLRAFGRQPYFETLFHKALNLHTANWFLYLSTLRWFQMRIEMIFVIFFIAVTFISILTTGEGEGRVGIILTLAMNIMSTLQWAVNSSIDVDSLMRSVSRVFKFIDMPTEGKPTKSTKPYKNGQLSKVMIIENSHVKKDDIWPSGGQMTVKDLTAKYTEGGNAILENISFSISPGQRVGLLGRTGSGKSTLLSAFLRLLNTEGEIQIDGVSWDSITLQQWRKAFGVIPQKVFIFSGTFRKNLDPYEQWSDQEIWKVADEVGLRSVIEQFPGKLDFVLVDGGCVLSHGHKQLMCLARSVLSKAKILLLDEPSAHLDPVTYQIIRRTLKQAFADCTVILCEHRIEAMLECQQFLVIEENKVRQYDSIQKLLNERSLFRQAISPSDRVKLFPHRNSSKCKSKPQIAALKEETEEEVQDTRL

EC50 [1] [nM]	EC50 [2] [nM]	Maximum % activity (with co-corrector) [3]	Emax (CSE-HRP, without co-corrector) [%]	EC50 [4] [nM]	EC50 [5] [nM]	Maximum % activity (with co-corrector) (with co-corrector (2 μM))	Emax (without co-corrector) [%]	Emax [6] [%]	Maximum % activity (with co-corrector) [7]	Structure (SMILES)
1000 to 10000	1000 to 10000	+++ (≥350)	< 100							Cc1ccc(C)c(CN[C@H]2[C@H](C(C)(C)C)[C@@H](C(=O)O)N(C(=O)C3CCCCC3)[C@H]2c2ccccc2)c1 [II-117]
1000 to 10000	1000 to 10000	++ (≥150 and <350)	< 100							COc1ccc(C(F)(F)F)cc1CN[C@@H]1[C@@H](C(C)(C)C)[C@H](C(=O)O)N(C(=O)C2CCC3(CC2)CC3)[C@@H]1c1ccccc1 (racemic) [II-70]
				1000 to 10000	1000 to 10000	+++ (≥350)	100 to 200			COc1ccc(C(C)(C)C)cc1CN[C@H]1[C@H](C(C)(C)C)[C@@H](C(=O)O)N(C(=O)[C@H]2CCCCO2)[C@H]1c1ccccc1F [Example 50, (2S,3S,4S,5S)-3-tert-butyl-4-{[(5-tert-butyl-2-methoxyphenyl)methyl]amino}-5-(2-fluorophenyl)-1-[(2R)-oxane-2-carbonyl]pyrrolidine-2-carboxylic acid]
				< 1000	< 1000	+++ (≥350)	100 to 200			COc1ncc(C(C)c2ccccc2)cc1CN[C@H]1[C@H](C(C)(C)C)[C@@H](C(=O)O)N(C(=O)C2CCCCC2)[C@H]1c1ccccc1 (some centres unmarked) [Example I-75]
1000 to 10000	1000 to 10000	+++ (≥350)	< 100							COc1cc(C(F)(F)F)ccc1CN[C@H]1[C@H](C(C)(C)C)[C@@H](C(=O)O)N(C(=O)c2ccccc2)[C@H]1c1ccccc1 [II-152]
				1000 to 10000	1000 to 10000	+++ (≥350)	< 100			COc1c(C#N)c(N[C@H]2[C@H](C(C)(C)C)[C@@H](C(=O)O)N(C(=O)C3CCCCC3)[C@H]2c2ccccc2)nc2ccccc12 [Example I-55]
				< 1000	< 1000			100 to 200	+++ (≥350)	COc1ncc(-c2ccc(C)cc2)cc1CN[C@H]1[C@H](C(C)(C)C)[C@@H](C(=O)O)N(C(=O)C2CCCCC2)[C@H]1c1ccccc1 [II-347]
1000 to 10000	1000 to 10000	+++ (≥350)	100 to 200							COc1cc(C(F)(F)F)ccc1CN[C@H]1[C@H](C(C)(C)C)[C@@H](C(=O)O)N(C(=O)[C@H]2CCCCO2)[C@H]1c1ccccc1 [II-81]
				> 10000	1000 to 10000	++ (≥150 and <350)		< 100		CC(C)(C)[C@H]1[C@H](Nc2cc(C#N)cc(Cl)n2)[C@H](c2ccccc2)N(C(=O)C2CCCCC2)[C@@H]1C(=O)O [III-146]
				1000 to 10000	1000 to 10000			100 to 200	+++ (≥350)	COc1ccc(C(C)(C)C)nc1CN[C@H]1[C@H](C(C)(C)C)[C@@H](C(=O)O)N(C(=O)C2CCCCC2)[C@H]1c1ccccc1 [II-373]
				< 1000	< 1000	+++ (≥350)	< 100			COc1nc(C(C)(C)C)ccc1CN[C@H]1[C@H](C(C)(C)C)[C@@H](C(=O)O)N(C(=O)C2Cc3ccccc3O2)[C@H]1c1ccccc1 (single isomer, unassigned) [Example I-181]
				1000 to 10000	1000 to 10000	+++ (≥350)	100 to 200			COc1ccc(C(C)(C)C)cc1CN[C@H]1[C@H](C(C)(C)C)[C@@H](C(=O)O)N(C(=O)C2CCc3ccccc3O2)[C@H]1c1ccccc1 (single isomer, unassigned) [Example I-83]
				1000 to 10000	1000 to 10000	++ (≥150 and <350)		< 100		Cc1ccc(CN[C@H]2[C@H](C(C)(C)C)[C@@H](C(=O)O)N(C(=O)C3CCCCC3)[C@H]2c2ccccc2)cc1C [III-134]
				1000 to 10000	1000 to 10000			< 100	+++ (≥350)	COc1nc(C(C)(C)C)ccc1CN[C@H]1[C@H](C(C)(C)C)[C@@H](C(=O)O)N(C(=O)[C@H]2OC[C@H]3CCC[C@H]32)[C@H]1c1ccccc1 (relative stereo) [II-432]
				1000 to 10000	1000 to 10000			100 to 200	+++ (≥350)	CC#CCOC(=O)N1[C@H](C(=O)O)[C@@H](C(C)(C)C)[C@H](NCc2cc(C(C)(C)C)ccc2OC)[C@@H]1c1ccccc1 [II-389]
				> 10000	1000 to 10000	++ (≥150 and <350)		< 100		CC(C)(C)[C@H]1[C@H](NCc2ccc(C#N)cc2F)[C@H](c2ccccc2)N(C(=O)C2CCCCC2)[C@@H]1C(=O)O [III-121]
				1000 to 10000	1000 to 10000			100 to 200	+++ (≥350)	COc1ncc(C2CCC2)cc1CN[C@H]1[C@H](C(C)(C)C)[C@@H](C(=O)O)N(C(=O)C2COc3ccccc3O2)[C@H]1c1ccccc1 (some centres unmarked) [II-474]
< 1000	< 1000	+++ (≥350)	100 to 200							COc1ncc(CC2CCCCC2)cc1CN[C@H]1[C@H](C(C)(C)OC)[C@@H](C(=O)O)N(C(=O)C2CCCCC2)[C@H]1c1ccccc1 [II-253]
				1000 to 10000	1000 to 10000	+++ (≥350)	> 200			COc1ccc(C(F)(F)F)cc1CN[C@H]1[C@H](C(C)(C)C)[C@@H](C(=O)O)N(C(=O)[C@H]2OCC[C@H]2C(C)C)[C@H]1c1ccccc1 (relative stereo) [Example I-106]
				> 10000	1000 to 10000	++ (≥150 and <350)	< 100			COc1ccc(C(F)(F)F)cc1CN[C@@H]1[C@@H](C(C)(C)C)[C@H](C(=O)O)N(C(=O)C(C)(C)OC)[C@@H]1c1ccccc1 (racemic) [Example I-41]
1000 to 10000	1000 to 10000	+++ (≥350)	100 to 200							COc1ccc(C(F)(F)F)cc1CN[C@H]1[C@H](C(C)(C)OC)[C@@H](C(=O)O)N(C(=O)C2CCCCC2)[C@H]1c1ccccc1OC [II-295]
				< 1000	< 1000	+++ (≥350)	> 200			COc1ccc(C2CCC2)cc1CN[C@H]1[C@H](C(C)(C)C)[C@@H](C(=O)O)N(C(=O)C2CCCCC2)[C@H]1c1ccccc1 [Example I-68]
				1000 to 10000	1000 to 10000			> 200	+++ (≥350)	COc1ncc(C(F)(F)F)cc1CN[C@H]1[C@H](C(C)(C)C)[C@@H](C(=O)O)N(C(=O)OC(C)C)[C@H]1c1ccccc1C [II-580]
				1000 to 10000	1000 to 10000	+++ (≥350)	100 to 200			COc1nc(C(C)(C)C)ccc1CN[C@H]1[C@H](C(C)(C)C)[C@@H](C(=O)O)N(C(=O)[C@@H]2CCCCO2)[C@H]1c1ccccc1F [Example I-231]
				> 10000	1000 to 10000	++ (≥150 and <350)		< 100		CC(C)(O)c1cc(Cl)nc(N[C@H]2[C@H](C(C)(C)C)[C@@H](C(=O)O)N(C(=O)C3CCCCC3)[C@H]2c2ccccc2)c1 [III-147]
1000 to 10000	1000 to 10000	+++ (≥350)	< 100							COc1ccc(C(C)(C)C)cc1CN[C@H]1[C@H](C(C)(C)C)[C@@H](C(=O)O)N(C(=O)C(OC)C(C)(C)C)[C@H]1c1ccccc1 (relative stereo) [II-297]
